Values after ≈ are worked out from the molar mass of the structure shown. Marks after values point to notes of the source that are not given here. Where no end group is shown, it is not given here.
Assays:
[1] = system: Candida albicans 32354, ergosterol-deficient mutant; assay: Killing of yeasts; type: cell-based; settings: pH 7, read-out: IC50 values (50% of the inoculum is killed)
Method: (§1) 5*10^6 cells of Candida pseudotropicalis, Candida albicans 10231, Cryptococcus neoformans, Candida krusei, Candida parapsilosis, Candida glabrata and Candida albicans 32354 and an ergosterol-deficient mutant thereof were incubated for one and a half hours at 37° C. in the presence of a dilution series of a peptide according to the invention or amphotericin B in 1 mM potassium phosphate buffer, pH 7.0. The viability was determined by plating out. Used as positive control was synthetic PGLa (“Protein beginning with Glycine and ending with Leucin-amide”, with the amino acid sequence […]-amide).

Candida krusei = assay: microbe, parasite or virus in culture; settings: for IC50 values (50% of the inoculum is killed): pH 7
Method: as §1

Candida pseudotropicalis = assay: microbe, parasite or virus in culture; settings: for IC50 values (50% of the inoculum is killed): pH 7
Method: as §1

Candida albicans 10231 = assay: microbe, parasite or virus in culture; settings: for IC50 values (50% of the inoculum is killed): 10231, pH 7
Method: as §1

Candida albicans 32354 = assay: microbe, parasite or virus in culture
Method: as §1

Cryptococcus neoformans = assay: microbe, parasite or virus in culture; settings: for IC50 values (50% of the inoculum is killed): pH 7
Method: as §1

Candida glabrata = assay: microbe, parasite or virus in culture; settings: for IC50 values (50% of the inoculum is killed): pH 7
Method: as §1

Candida parapsilosis = assay: microbe, parasite or virus in culture; settings: for IC50 values (50% of the inoculum is killed): pH 7
Method: as §1

[2] = system: meticillin-resistant Staphylococcus aureus (MRSA); assay: Growth inhibition on agar with spotted peptide; type: cell-based; design: key: “+” designates full growth inhibition; “+/−” designates partial inhibition; “−” signifies no inhibition; settings: 10 μg peptide spotted
Method: (§2) The growth of the yeast Candida albicans, Torulopsis glabrata and meticillin-resistant Staphylococcus aureus (MRSA) was tested by growing them on agar on which 10 μg of each of the peptides according to the invention was spotted. […] “+” designates full growth inhibition, “+/−” designates partial inhibition and “−” signifies no inhibition.

Torulopsis glabrata = assay: Growth inhibition on agar with spotted peptide; type: cell-based; design: key: “+” designates full growth inhibition; “+/−” designates partial inhibition; “−” signifies no inhibition; settings: T. glabrata on agar, 10 μg peptide spotted
Method: as §2

Candida albicans = assay: Growth inhibition on agar with spotted peptide; type: cell-based; design: key: “+” designates full growth inhibition; “+/−” designates partial inhibition; “−” signifies no inhibition; settings: C. albicans on agar, 10 μg peptide spotted
Method: as §2

Streptococcus salivarius = assay: Inhibition of lactic acid production; type: cell-based; settings: S. salivarius; 1 hour in 10 mM PPB with glucose
Method: (§3) All peptides according to the invention were tested for their capacity to inhibit the lactic acid production of the bacteria Streptococcus sanguis, Streptococcus mutans, Streptococcus salivarius and Lactobacillus rhamnosus. The formation of lactic acid is a measure for the metabolic activity. For this purpose cultures of bacteria cells were incubated for 1 hour in 10 mM PPB with 0.5 glucose and different concentrations of the peptides. The formation of lactic acid was monitored by means of spectrophotometry.

Streptococcus mutans = assay: Inhibition of lactic acid production; type: cell-based; settings: S. mutans; 1 hour in 10 mM PPB with glucose
Method: as §3

Lactobacillus rhamnosus = assay: Inhibition of lactic acid production; type: cell-based; settings: L. rhamnosus; 1 hour in 10 mM PPB with glucose
Method: as §3

Streptococcus sanguis = assay: Inhibition of lactic acid production; type: cell-based; settings: S. sanguis; 1 hour in 10 mM PPB with glucose
Method: as §3

[3] = system: Streptococcus mutans (R9); assay: Antibacterial activity against monocultures in vitro (viability counts); type: cell-based; settings: 0.5 h, 100 μg/ml
Method: (§4) Monocultures of the bacteria Streptococcus mutans (R9), Strentococcus sanguis (SB 179), Streptococcus salivarius (SS 196), Actinomyces naeslundii (WVU 627), Fusobacterium nucleatum (ATCC 10953), Prevotella intermedia ([…]) and Veillonella parvula (ATCC 17745) were cultured to a late log phase in BHI (Difco), washed three times in 10 mM potassium phosphate buffer (PPB) and diluted to a suspension of 10^6 CFU/ml. […] The control treatment was performed in 10 mM without peptide.

[4] = system: Fusobacterium nucleatum (ATCC 10953); assay: as above; type: cell-based; settings: 0.5 h, 100 μg/ml
Method: as §4

[5] = system: Veillonella parvula (ATCC 17745); assay: as above; type: cell-based; settings: 0.5 h, 100 μg/ml
Method: as §4

[6] = system: Streptococcus salivarius (SS 196); assay: as above; type: cell-based; settings: 0.5 h, 100 μg/ml
Method: as §4

[7] = system: Strentococcus sanguis (SB 179); assay: as above; type: cell-based; settings: Streptococcus sanguis, 0.5 h, 100 μg/ml
Method: as §4

[8] = system: Actinomyces naeslundii (WVU 627); assay: as above; type: cell-based; settings: 0.5 h, 100 μg/ml
Method: as §4

[9] = system: Prevotella intermedia (T588); assay: as above; type: cell-based; settings: 0.5 h, 100 μg/ml
Method: as §4

[10] = system: bacteria collected from saliva; assay: Antimicrobial activity on oral bacteria; type: cell-based; settings: 0.5 h, 100 μg/ml
Text: (§5) In order to determine whether the peptides according to the invention are also active against bacteria such as are encountered in the mouth, bacteria were collected from saliva and plaque. Saliva was shaken on a vortex mixer and centrifuged.

[11] = system: bacteria from cultured plaque; assay: Antimicrobial activity on oral bacteria; type: cell-based; settings: 0.5 h, 100 μg/ml
Text: as §5

[12] = system: bacteria from disrupted plaque; assay: Antimicrobial activity on oral bacteria; type: cell-based; settings: 0.5 h, 100 μg/ml
Text: as §5

[13] = system: bacteria collected from plaque; assay: Antimicrobial activity on oral bacteria; type: cell-based; settings: 0.5 h, 100 μg/ml
Text: as §5

Salmonella typhimurium = assay: Killing of Salmonella by peptide 10 (CFU over time); type: cell-based; settings: 50 μg/ml, culture with 10^4 Salmonella typhimurium, CFU at 0, 1, 2 and 3 hours (FIG. 3A)
Method: (§6) Peptide 10 was added in a concentration of 50 μg/ml to a culture with 10^4 Salmonella typhimurium bacteria. For control purposes a culture to which nothing was added was included as blank. The number of CFU was determined at the points in time 0, 1, 2 and 3 hours. The same was done with Yersinia enterocolitica (PYv+). […] Particular peptides are also found to have a killing effect on micro-organisms which are resistant to antimicrobial agents used at present.

[14] = system: Yersinia enterocolitica (PYv+); assay: Killing of Yersinia by peptide 10 (CFU over time); type: cell-based; settings: 50 μg/ml, CFU at 0, 1, 2 and 3 hours (FIG. 3B)
Method: as §6

Compound	growth inhibition [2]	growth inhibition (Torulopsis glabrata)	growth inhibition (Candida albicans)	inhibition of lactic acid production (Streptococcus salivarius)	inhibition of lactic acid production (Streptococcus mutans)	inhibition of lactic acid production (Lactobacillus rhamnosus)	inhibition of lactic acid production (Streptococcus sanguis)	% reduction in viability counts [3]	% reduction in viability counts [4]	% reduction in viability counts [5]	% reduction in viability counts [6]	% reduction in viability counts [7]	% reduction in viability counts [8]	IC50 values (50% of the inoculum is killed) (Candida krusei) [µg/mL]	IC50 values (50% of the inoculum is killed) (Candida pseudotropicalis) [µg/mL]	IC50 values (50% of the inoculum is killed) (Candida albicans 10231) [µg/mL]	IC50 values (50% of the inoculum is killed) (Cryptococcus neoformans) [µg/mL]	IC50 values (50% of the inoculum is killed) (Candida glabrata) [µg/mL]	IC50 values (50% of the inoculum is killed) (Candida parapsilosis) [µg/mL]	% reduction in viability counts [9]	also measured
C[C@@H]1[C@H](O)[C@@H](C)/C=C/C=C/C=C/C=C/C=C/C=C/C=C/[C@H](O[C@@H]2O[C@H](C)[C@@H](O)[C@H](N)[C@@H]2O)C[C@@H]2O[C@](O)(C[C@@H](O)C[C@@H](O)[C@H](O)CC[C@@H](O)C[C@@H](O)CC(=O)O[C@H]1C)C[C@H](O)[C@H]2C(=O)O [amphotericin B]																					IC50 [1]: > 70 µg/mL; IC50 (Candida krusei; Pichia kudriavzevii, pH 7, read-out: IC50 values (50% of the inoculum is killed)): > 70 µg/mL; IC50 (Candida pseudotropicalis; Kluyveromyces marxianus, pH 7, read-out: IC50 values (50% of the inoculum is killed)): 8 µg/mL (≈ 8.66 µM); IC50 (Candida albicans 10231; Candida albicans, 10231, pH 7, read-out: IC50 values (50% of the inoculum is killed)): 1 µg/mL (≈ 1.08 µM); IC50 (Candida albicans 32354; Candida albicans, 32354, pH 7, read-out: IC50 values (50% of the inoculum is killed)): 2 µg/mL (≈ 2.16 µM); IC50 (Cryptococcus neoformans; Cryptococcus neoformans, pH 7, read-out: IC50 values (50% of the inoculum is killed)): 1 µg/mL (≈ 1.08 µM); IC50 (Candida glabrata; Nakaseomyces glabratus, pH 7, read-out: IC50 values (50% of the inoculum is killed)): 2 µg/mL (≈ 2.16 µM); IC50 (Candida parapsilosis; Lodderomyces parapsilosis, pH 7, read-out: IC50 values (50% of the inoculum is killed)): 6 µg/mL (≈ 6.49 µM)
C[C@H](NC(=O)[C@H](Cc1cnc[nH]1)NC(=O)[C@H](CO)NC(=O)[C@@H](N)CC(=O)O)C(=O)N[C@@H](CCCCN)C(=O)N[C@@H](CCCNC(=N)N)C(=O)N[C@@H](Cc1cnc[nH]1)C(=O)N[C@@H](Cc1cnc[nH]1)C(=O)NCC(=O)N[C@@H](Cc1ccc(O)cc1)C(=O)N[C@@H](CCCCN)C(=O)N[C@@H](CCCNC(=N)N)C(=O)N[C@@H](CCCCN)C(=O)N[C@@H](Cc1ccccc1)C(=O)N[C@@H](Cc1cnc[nH]1)C(=O)N[C@@H](CCC(=O)O)C(=O)N[C@@H](CCCCN)C(=O)N[C@@H](Cc1cnc[nH]1)C(=O)N[C@@H](Cc1cnc[nH]1)C(=O)N[C@@H](CO)C(=O)N[C@@H](Cc1cnc[nH]1)C(=O)N[C@@H](CCCNC(=N)N)C(=O)NCC(=O)N[C@@H](Cc1ccc(O)cc1)C(=O)O [histatin 5, reference compound]	−	−	−	− (“−” signifies no inhibition of lactic acid formation at >100 μg/ml peptide)	− (“−” signifies no inhibition of lactic acid formation at >100 μg/ml peptide)	− (“−” signifies no inhibition of lactic acid formation at >100 μg/ml peptide)	− (“−” signifies no inhibition of lactic acid formation at >100 μg/ml peptide)	−49.5%	49.3%	26.9%	38.3%	69.5%	−11.6%								
GHMASKGAIAGKIAKVALKAL-NH2 [positive control peptide]								>99.9%	>99.9* %	>99.9* %	>99.9* %	>99.9* %	>99.9* %	1	1	1	0.5	9	1	98.0%	IC50 values (50% of the inoculum is killed) (Candida albicans 32354; 32354, pH 7): 1 µg/mL; % reduction in viability counts, total Gram-negative average [10]: 97.7%; % reduction in viability counts, total aerobic average [10]: 60.1%; % reduction in viability counts, total anaerobic average [10]: 73.2%; % reduction in viability counts, total Gram-negative average [11]: 83.7%; % reduction in viability counts, total aerobic average [11]: 20.6%; % reduction in viability counts, total anaerobic average [11]: 87.2%; % reduction in viability counts, total Gram-negative average [12]: 45.9%; % reduction in viability counts, total aerobic average [12]: 41.7%; % reduction in viability counts, total anaerobic average [12]: 68.5%; % reduction in viability counts, total Gram-negative average [13]: 84.0%; % reduction in viability counts, total aerobic average [13]: 58.5%; % reduction in viability counts, total anaerobic average [13]: 51.5%
KRLFKELKFSLRKY-OH [peptide 3, KRLFKELKFSLRKY]	+/−	+	+	+ (“+” designates full inhibition at 4-20 μg/ml peptide)	+ (“+” designates full inhibition at 4-20 μg/ml peptide)	+ (“+” designates full inhibition at 4-20 μg/ml peptide)	+ (“+” designates full inhibition at 4-20 μg/ml peptide)	>99.9* %	92.9 (3.00)* %	>99.9* %	>99.9* %	99.6 (0.30)* %	>99.9* %							−57.8 (77.9) %	
KRLFKKLLFSLRKY [peptide 10, KRLFKKLLFSLRKY]	+	+	+	+ (“+” designates full inhibition at 4-20 μg/ml peptide)	+ (“+” designates full inhibition at 4-20 μg/ml peptide)	+ (“+” designates full inhibition at 4-20 μg/ml peptide)	+ (“+” designates full inhibition at 4-20 μg/ml peptide)														number of bacteria (CFU) after adding peptide (Salmonella typhimurium): below the detection limit; number of bacteria (CFU) after adding peptide [14]: below the detection limit
SSSKEENRIIPGGI [negative control, SSSKEENRIIPGGI]														>67	>67	>67	>67	>67	>67		
